For eight molecules, response vs control in vivo, zone of inhibition and IC50 results are on record in patent EP0103381B1, “Substituted anthra(1,9-cd)pyrazol-6(2H)-ones” (WARNER-LAMBERT COMPANY, priority 1982, dated 1984).

Structures are written as SMILES. Where two headings read alike, the source gives them in different places.

The test system of assay [1] is lymphocytic leukemia P388. Briefly: in vivo lymphocytic leukemia P388 test. Also noted: species or system mice. The settings on record: Mus musculus, P388, ip, 720 h, two single doses four days apart, read-out: T/C × 100 (Percent); for response vs control in vivo at 50 mg/kg: P388, Dose 50 mg/kg intraperitoneally; for response vs control in vivo at 6.25 mg/kg: P388, Dose 6.25 mg/kg intraperitoneally; for response vs control in vivo at 12.5 mg/kg: P388, Dose 12.5 mg/kg intraperitoneally; for response vs control in vivo at 25 mg/kg: P388, Dose 25 mg/kg intraperitoneally; for response vs control in vivo at 3.12 mg/kg: P388, Dose 3.12 mg/kg intraperitoneally; for response vs control in vivo at 1.56 mg/kg: P388, Dose 1.56 mg/kg intraperitoneally; for response vs control in vivo at 100 mg/kg: P388, Dose 100 mg/kg intraperitoneally. A digest of the protocol:
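Efficacy was judged from the treated/control survival-time ratio over 30 days (T/C×100 >125% as criterion). Mice (CD2F, 6–7/group) received i.p. P388 ascites cells, then compound i.p. at varied doses twice, four days apart.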

Assay [2] concerns Penicillium avellaneum. Description: agar plate paper-disc inhibition zone screening. The settings on record: Hamigera avellanea; Dose 3.0 mg/ml; read-out: Inhibition Zone Diameter mm (Dose mg/ml) P. Avellaneum. It is filed as cell-based. A digest of the protocol:
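Mycelia and spores from a six-day 28°C agar culture, suspended in saline with 0.05% Tween 80 at 20% transmittancy, were seeded into molten agar trays. Compounds at 3,000, 1,000, 500, 100 and 10 mcg/ml (solvent <10%) were applied on 12.7 mm paper discs. After at least 20-24 h incubation, inhibition zone diameter was measured in mm.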

Assay [3] has as its system Escherichia coli. Description: agar plate paper-disc inhibition zone screening. To be noted: read-out: Inhibition Zone Diameter mm (Dose mg/ml) E. Coli; for zone of inhibition at 3000 µg/mL: Dose 3.0 mg/ml; for zone of inhibition at 500 µg/mL: Dose 0.5 mg/ml; for zone of inhibition at 1000 µg/mL: Dose 1.0 mg/ml. In kind it is cell-based. Summed up:
(§1)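 Overnight bacterial cultures were suspended in 0.85% saline to 20-35% light transmittancy and mixed into molten assay agar poured in trays. Compounds at 3,000, 1,000, 500, 100 and 10 mcg/ml (solvent <10%) were applied to 12.7 mm paper discs; after 18-20 h at 37°C, inhibition zone diameters were measured in mm.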

In assay [4] the test system is Streptococcus faecalis. Briefly: agar plate paper-disc inhibition zone screening. In kind it is cell-based. To be noted: Enterococcus faecalis, read-out: Inhibition Zone Diameter mm (Dose mg/ml) S. Faecalis; for zone of inhibition at 3000 µg/mL: Dose 3.0 mg/ml; for zone of inhibition at 500 µg/mL: Dose 0.5 mg/ml. A digest of the protocol:
as §1

The subject of assay [5] is Aerobacter aerogenes. Briefly: agar plate paper-disc inhibition zone screening. In kind it is cell-based. To be noted: Klebsiella aerogenes, read-out: Inhibition Zone Diameter mm (Dose mg/ml) A. Aerogenes; for zone of inhibition at 1000 µg/mL: Dose 1.0 mg/ml; for zone of inhibition at 500 µg/mL: Dose 0.5 mg/ml; for zone of inhibition at 3000 µg/mL: Dose 3.0 mg/ml. A digest of the protocol: as §1

Assay [6] concerns Bacillus subtilis. Briefly: agar plate paper-disc inhibition zone screening. It is filed as cell-based. The settings on record: read-out: Inhibition Zone Diameter mm (Dose mg/ml) B. Subtilis; for zone of inhibition at 3000 µg/mL: Dose 3.0 mg/ml; for zone of inhibition at 500 µg/mL: Dose 0.5 mg/ml. Summed up:
as §1

Assay [7] relates to L1210 Leukemia. Briefly: L1210 leukemia in vitro. The settings on record: Mus musculus, procedure of Europ. J. Cancer 17, 671 (1981), read-out: L1210 Leukemia In Vitro ID50 Molar. In kind it is cell-based.
For assay [8], the system named is HCT-8 (human colon adenocarcinoma) cells. Briefly: in vitro activity against human colon adenocarcinoma (HCT-8), cell count. In kind it is cell-based. A digest of the protocol: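 HCT-8 cells seeded at ~30,000 cells/ml in RPMI 1640 + 10% FCS, grown 48 hrs at 37°C, then exposed to compound 60-65 hrs. Lysed cells counted by Coulter counter; activity as percent of controls, reported as ID50 (molar quantity killing 50% of cells).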

The mark [9] stands for this setting: Homo sapiens, HCT-8 cells, 60-65 hrs with compound, molar quantity of drug required to kill 50% of the tumor cells, read-out: ID50 Molar.

In the case of `NCCn1nc2c3c(c(Cl)ccc31)C(=O)c1c(O)ccc(O)c1-2` [7,10-(OH)2; Cl*; (CH2)2NH2, 2-(2-Aminoethyl)-5-chloro-7,10-dihydroxyanthra[1,9-cd]pyrazol-6(2H)-one], in assay [1], the response vs control in vivo at 50 mg/kg was 125%. The zone of inhibition at 3000 µg/mL in assay [2] was 0 mm; in assay [3], 15 mm; in assay [4], 0 mm; in assay [6], 0 mm. For the same molecule, the zone of inhibition at 1000 µg/mL in assay [5] amounted to 14 mm. Moreover, the IC50 in assay [7] was 0.63 µM.

In the case of `O=C1c2c(O)ccc(O)c2-c2nn(CCNCCO)c3ccc(Cl)c1c23` [7,10-(OH)2; Cl*; (CH2)2NH(CH2)2OH, 5-Chloro-7,10-dihydroxy-2-[2-[(2-hydroxyethyl)amino]ethyl]anthra[1,9-cd]pyrazol-6(2H)-one], in assay [1], the response vs control in vivo at 6.25 mg/kg is 131%, the response vs control in vivo at 12.5 mg/kg amounted to 138%, the response vs control in vivo at 25 mg/kg worked out at 143% and the response vs control in vivo at 50 mg/kg was 161%. Also, the zone of inhibition at 3000 µg/mL in assay [2] was determined as 0 mm. The zone of inhibition at 500 µg/mL in assay [3] was 14 mm. Moreover, in assay [4], the zone of inhibition at 3000 µg/mL was 0 mm. For the same molecule, in assay [5], the zone of inhibition at 1000 µg/mL turned out to be 14 mm. In addition, the zone of inhibition at 3000 µg/mL in assay [6] amounted to 0 mm. Also, the IC50 in assay [7] was 0.66 µM.

In the case of `CN(C)CCNc1ccc2c3c(nn2CCNCCO)-c2ccccc2C(=O)c13` [Example 25, 2-[2-[(2-Hydroxyethyl)amino]ethyl]-5-[[2-(dimethylamino)ethyl]amino]anthra[1,9-cd]pyrazol-6(2H)-one], in assay [1], the response vs control in vivo at 3.12 mg/kg worked out at 158%, the response vs control in vivo at 6.25 mg/kg came out at 163%, the response vs control in vivo at 12.5 mg/kg came out at 166% and the response vs control in vivo at 25 mg/kg was determined as 162%. The zone of inhibition at 3000 µg/mL in assay [2] came to 0 mm. Further, in assay [8] (setting [9]), the IC50 is 0.23 µM. Moreover, the zone of inhibition at 1000 µg/mL in assay [3] worked out at 15 mm. In addition, the zone of inhibition at 500 µg/mL in assay [4] came out at 15 mm. The zone of inhibition at 500 µg/mL in assay [5] was 16 mm. Further, the zone of inhibition at 500 µg/mL in assay [6] turned out to be 20 mm.

On to `NCCn1nc2c3c(c(NCCNCCO)ccc31)C(=O)c1ccccc1-2` [Example 27, 2-(2-Aminoethyl)-5-[[2-[(2-hydroxyethyl)amino]ethyl]amino]anthra[1,9-cd]pyrazol-6(2H)-one], for which, in assay [1], the response vs control in vivo at 1.56 mg/kg was 139%, the response vs control in vivo at 3.12 mg/kg came out at 149%, the response vs control in vivo at 6.25 mg/kg was 158% and the response vs control in vivo at 12.5 mg/kg was 173%. Further, in assay [1], the response vs control in vivo at 25 mg/kg came to 187%. Also, in assay [2], the zone of inhibition at 3000 µg/mL turned out to be 0 mm. Further, the IC50 in assay [8] (setting [9]) was found to be 0.068 µM. The zone of inhibition at 500 µg/mL in assay [3] is 14 mm. Also, in assay [4], the zone of inhibition at 3000 µg/mL was determined as 0 mm. Also, the zone of inhibition at 100 µg/mL in assay [5] (Dose 0.1 mg/ml) turned out to be 17 mm. In addition, the zone of inhibition at 3000 µg/mL in assay [6] came to 14 mm.

`CCN(CC)CCNc1ccc2c3c(nn2CCN(CC)CC)-c2c(O)ccc(O)c2C(=O)c13` [Example 29, 2-[2-(Diethylamino)ethyl]-5-[[2-(diethylamino)ethyl]amino]-7,10-dihydroxyanthra[1,9-cd]pyrazol-6(2H)-one]: the response vs control in vivo at 25 mg/kg in assay [1] amounted to 140%. Moreover, the response vs control in vivo at 100 mg/kg in assay [1] was 180%. Further, the zone of inhibition at 3000 µg/mL was determined as 16 mm in assay [2] and 0 mm in assay [5]. Also, the IC50 in assay [8] (setting [9]) turned out to be 0.64 µM. Moreover, the zone of inhibition at 500 µg/mL in assay [3], in assay [4] and in assay [6] was 14 mm in each case.

In the case of `CCN(CC)CCn1nc2c3c(c(NCCN)ccc31)C(=O)c1c(O)ccc(O)c1-2` [Example 30, 5-[(2-Aminoethyl)amino]-2-(2-(diethylamino)ethyl]-7,10-dihydroxyanthra[1,9-cd]pyrazol-6(2H)-one], in assay [1], the response vs control in vivo at 1.56 mg/kg is 172%, the response vs control in vivo at 3.12 mg/kg turned out to be 154%, the response vs control in vivo at 6.25 mg/kg turned out to be 189% and the response vs control in vivo at 25 mg/kg was found to be 179%. In assay [2], the zone of inhibition at 3000 µg/mL is 14 mm. Further, in assay [8] (setting [9]), the IC50 was found to be 0.38 µM. In assay [3], the zone of inhibition at 1000 µg/mL is 15 mm. The zone of inhibition at 3000 µg/mL in assay [4] came out at 0 mm. Also, the zone of inhibition at 500 µg/mL in assay [5] is 16 mm. The zone of inhibition at 1000 µg/mL in assay [6] (Dose 1.0 mg/ml) stood at 16 mm.

Regarding `CN(C)CCCn1nc2c3c(c(NCCNCCO)ccc31)C(=O)c1c(O)ccc(O)c1-2` [Example 46, 2-[3-(Dimethylamino)propyl]-7,10-dihydroxy-5-[[2-[(2-hydroxyethyl)amino]ethyl]amino]anthra[1,9-cd]pyrazol-6(2H)-one], the response vs control in vivo at 6.25 mg/kg in assay [1] came out at 185%. Moreover, the response vs control in vivo at 12.5 mg/kg in assay [1] is 218%. Besides, the zone of inhibition at 3000 µg/mL in assay [2] came out at 0 mm; in assay [3] it was 0 mm; in assay [4], 0 mm; in assay [5] it was 16 mm; in assay [6], 0 mm. In assay [8] (HCT-8 human colon adenocarcinoma cells, 60-65 hrs incubation with compound, Coulter counter cell count as percentage of controls, read-out: ID50 (the source's name)), the IC50 came to 0.092 µM.

In the case of `O=C1c2ccccc2-c2nn(CCNCCO)c3ccc(Cl)c1c23` [H; Cl*; (CH2)2NH(CH2)2OH, 5-chloro-2-[2-[(2-hydroxyethyl)amino]ethyl]anthra[1,9-cd]pyrazol-6(2H)-one], the response vs control in vivo at 100 mg/kg in assay [1] worked out at 124%. Moreover, the zone of inhibition at 3000 µg/mL was 0 mm in assay [2] and 15 mm in assay [4]. Moreover, the zone of inhibition at 100 µg/mL in assay [3] (Dose 0.1 mg/ml) and in assay [6] (Dose 0.1 mg/ml) was 16 mm throughout. In addition, in assay [5], the zone of inhibition at 500 µg/mL worked out at 18 mm. Moreover, in assay [7], the IC50 came to 0.39 µM.
